System: Leu16 CAR-T cells
Assay: T-cell subtype distribution and Tn/scm enrichment, Leu16 CAR-T cells
Type: cell-based, human
Conditions: 6 days of pharmacological modulation, relative to vehicle
Description: FIG. 3A-G. Pharmacological modulation of Leu16 CAR-T cells modestly dampens tonic signaling while enhancing anti-tumor efficacy. (A) Pictorial representation of the correlation between tonic signaling-modulated rituximab CAR-T cells and in vivo anti-tumor efficacy. (B) Pictorial representation of pharmacological modulation strategy aimed to either increase or decrease Leu16 CAR tonic signaling; c-MYC (MYCi975) and SREBP (betulin) inhibition increased tonic signaling whereas mTORC1 (rapamycin) inhibition decreased tonic signaling in rituximab CAR-T cells. (C) % distribution of T-cell subtypes in CAR^+ T cells after 6 days of pharmacological modulation (left) and Tn/scm enrichment (right). […] (F) Tumor signal (in photons/sec/cm2/sr) in individual animals as quantified by bioluminescence imaging. […]
Antibody staining for flow-cytometry analysis. EGFRt expression was measured with biotinylated cetuximab (Eli Lilly; biotinylated in-house), followed by PE-conjugated streptavidin (Jackson ImmunoResearch #016-110-084). CAR expression was quantified by surface epitope staining using anti-Fc (Alexa Fluor 488, Jackson ImmunoResearch #709-546-098). […] T-cell subtype of CAR-T cells was evaluated by antibody staining for CD45RO (VioBlue®, clone REA611, Miltenyi #130-119-620) and CD62L (APC, clone DREG56, Invitrogen #17-0629-42) after 5-6 days of inhibitor culture (FIG. 1, FIG. 3). […]

Compound	enrichment of Tn/scm cells
C=C(C)[C@@H]1CC[C@]2(CO)CC[C@]3(C)[C@H](CC[C@@H]4[C@@]5(C)CC[C@H](O)C(C)(C)[C@@H]5CC[C@]43C)[C@@H]12 [betulin, Betulin]	increased enrichment
MYCi975	increased enrichment

— patent US20250345426A1, “METHODS FOR MAKING AND USING THERAPEUTIC CELLS” (THE REGENTS OF THE UNIVERSITY OF CALIFORNIA, priority 2022, published 2025)
